Measurements reported in US11912647B2, “Diversity-oriented synthesis of N,N,O-trisubstituted hydroxylamines from alcohols and amines by N—O bond formation” (University of Georgia Research Foundation, Inc., priority 2020, dated 2024).

Tests used:
[1] = system: human hepatocarcinoma cell line HepG2; settings: cited from earlier work

## CC(C)(C)ON1CCN(c2cccc(Cl)c2Cl)CC1
other
  melting point: 92 to 93 °C

## 10-aza-9-oxakalkitoxin
[1]
  IC50: 2.4 ng/mL
[1]; hydroxalog versus parent natural product
  activity toward HepG2 relative to kalkitoxin: complete retention of activity

## CC(C)(C)ON1CCN(c2ccc(C(F)(F)F)cc2)CC1
other
  melting point: 77.6 to 78.8 °C

## kalkitoxin
[1]
  IC50: 3.2 ng/mL
